Data from patent US11533913B2, “Treating water stress in plants” (Rothamsted Research Limited, priority 2015, dated 2022).

Tests used:
[1] = test system: Spring wheat (Triticum aestivum Cadenza); assay: Recovery response: regrowth (biomass) of water stressed wheat plants after re-watering; assay type: in vivo; conditions: 4-week-old wheat plants sprayed once with 30 mL of 1 mM after 9 days of drought; watering resumed 1 day after treatment
Description: (§1) Spring wheat (Triticum aestivum Cadenza) seeds were sown in Rothamsted Prescription Compost Mix (75% medium grade (L+P) peat, 12% screened sterilised loam, 3% medium grade vermiculite, 10% grit (lime-free), 3.5 kg Osmocote Exact 3-4 month/m^3 (Scott's UK Professional, Ipswich, Suffolk, www.scottinternational.com), 0.5 kg PG mix/m^3 (Hydro Agri Ltd., Immingham, UK), Wetting agent and Lime) and grown in controlled environment conditions with a photoperiod of 16 hours light, 8 hours dark, day/night temperatures of 20° C./16° C., photon flux density of 600 μmol m^−2 s^−1, and ambient relative humidity. Once the plants had reached Feekes stage 4, water was withheld for 10 days. On the 9th day, 30 ml 1 mM solutions of oNPE-T6P and DMNBT6P were applied to all above-ground biomass, on the 10th day the watering schedule was reinstated. Plants were harvested to measure biomass production every 5 days for 30 days after watering was reinstated. Both experiments were completed in replicates of 6.
(§2) Analysis of Variance (ANOVA) was applied to data to test for differences between treatments. A natural log transformation was used where necessary to ensure constant variance. The GENSTAT statistical system was used for this analysis (2011, 14th edition, ©VSN International Ltd, Hemel Hempstead, UK).
The effect of the signalling precursors upon plant resilience and recovery were tested. Drought is still the biggest global factor that limits crop yields, even in developed countries, such as the UK (Boyer, 1982, Science 218: 443-448).

[2] = test system: Spring wheat (Triticum aestivum Cadenza); assay: Resurrection response: regrowth of new tissue from plants cut back after drought treatment; assay type: in vivo; conditions: one application of 1 mM one day prior to re-watering, cut at 5 days after re-watering, left to regrow for 10 days
Description: as §1
as §2, with “UK). […]” for “UK).”

Structure (SMILES)	regrowth (recovery response) following resumption of watering [1]	regrowth (resurrection response) of new tissue from plants cut back after drought treatment [2]
CC(OP(=O)(OC[C@H]1O[C@H](O[C@H]2O[C@H](CO)[C@@H](O)[C@H](O)[C@H]2O)[C@H](O)[C@@H](O)[C@@H]1O)OC(C)c1ccccc1[N+](=O)[O-])c1ccccc1[N+](=O)[O-] (stereo partly drawn) [oNPE-T6P 3, 6-O-bis[1-(2-nitrophenyl)-ethoxyphosphoryl]-D-trehalose]	the effects were dramatic	–
COc1cc(COP(=O)(OCc2cc(OC)c(OC)cc2[N+](=O)[O-])OC[C@H]2O[C@H](O[C@H]3O[C@H](CO)[C@@H](O)[C@H](O)[C@H]3O)[C@H](O)[C@@H](O)[C@@H]2O)c([N+](=O)[O-])cc1OC [DMNB-T6P 2, 6-O-bis-(4,5-dimethoxy-2-nitrobenzyloxyphosphoryl)-D-trehalose]	the effects were dramatic	–
O=P(O)(O)OC[C@H]1O[C@H](O[C@H]2O[C@H](CO)[C@@H](O)[C@H](O)[C@H]2O)[C@H](O)[C@@H](O)[C@@H]1O [Compound T6P, trehalose 6-phosphate]	identical results to use of water alone	identical results to use of water alone
